From patent publication US9302999B2, “Substituted triazoles as herbicides” (E. I. DU PONT DE NEMOURS AND COMPANY, priority 2012, dated 2016)
Like-named read-outs stand apart in the source and are kept apart here.

Legend:
Format in all cases: in vivo
[1] = tested on: morningglory (Ipomoea coccinea); experiment: Test C pre-/postemergence: morningglory
From the text: (§1) Seeds of plant species selected from blackgrass (Alopecurus myosuroides), bromegrass, downy (downy bromegrass, Bromus tectorum), foxtail, green (green foxtail, Setaria viridis), ryegrass, Italian (Italian ryegrass, Lolium multiflorum), winter wheat (Triticum aestivum), wild oat (Avena fatua), galium (catchweed bedstraw, Galium aparine), bermudagrass (Cynodon dactylon), surinam grass (Brachiaria decumbens), cocklebur (common cocklebur, Xanthium strumarium), corn (Zea mays), large crabgrass (Digitaria sanguinalis), woolly cupgrass (Eriochloa villosa), foxtail, giant (giant foxtail, Setaria faberii), goosegrass (Eleusine indica), johnsongrass (Sorghum halepense), kochia (Kochia scoparia), lambsquarters (Chenopodium album), morningglory (Ipomoea coccinea), nightshade (eastern black nightshade, Solanum ptycanthum), nutsedge, yellow (yellow nutsedge, Cyperus esculentus), pigweed (Amaranthus retroflexus), ragweed (common ragweed, Ambrosia elation), soybean (Glycine max), common (oilseed) sunflower (Helianthus annuus), Russian thistle (Salsola kali) and velvetleaf (Abutilon theophrasti) were planted into a blend of loam soil and sand and treated preemergence with test chemicals formulated in a non-phytotoxic solvent mixture which included a surfactant.
(§2) At the same time, plants selected from these crop and weed species and also barley (winter barley, Hordeum vulgare), canarygrass (Phalaris minor), chickweed (common chickweed, Stellaria media) windgrass (Apera spica-venti) and deadnettle (henbit deadnettle, Lamium amplexicaule) were planted in pots containing Redi-Earth® planting medium (Scotts Company, 14111 Scottslawn Road, Marysville, Ohio 43041) comprising spaghnum peat moss, vermiculite, wetting agent and starter nutrients and treated with postemergence applications of test chemicals formulated in the same manner. Plants ranged in height from 2 to 18 cm (1- to 4-leaf stage) for postemergence treatments.
(§3) Treated plants and controls were maintained in a greenhouse for 13 to 15 days, after which time all species were compared to controls and visually evaluated. Plant response ratings, summarized in Table C, are based on a scale of 0 to 100 where 0 is no effect and 100 is complete control. A dash (-) response means no test result.

[2] = tested on: corn (Zea mays); experiment: Test A pre-/postemergence: corn
How it was run: (§4)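 Rating scale 0–100 (100 = complete control), visual, ~10 days after application in the greenhouse. Applications: preemergence directed soil spray; postemergence at 1–2 leaves.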

[3] = tested on: wheat (Triticum aestivum); experiment: Test A pre-/postemergence: wheat; conditions: for plant injury at 125 g/ha / plant injury at 500 g/ha: Triticum aestivum, 240 h
How it was run: as §4

[4] = tested on: ryegrass, Italian (Italian ryegrass, Lolium multiflorum); experiment: Test C pre-/postemergence: ryegrass, Italian
From the text: as §1, §2, §3

[5] = tested on: morningglory (Ipomoea spp.); experiment: Test A pre-/postemergence: morningglory
How it was run: as §4

[6] = tested on: pigweed (Amaranthus retroflexus); experiment: Test A pre-/postemergence: pigweed; conditions: for pest or weed control at 125 g/ha / pest or weed control at 500 g/ha: Amaranthus retroflexus, 240 h
How it was run: as §4

[7] = tested on: nutsedge, yellow (yellow nutsedge, Cyperus esculentus); experiment: Test C pre-/postemergence: nutsedge, yellow
From the text: as §1, §2, §3

[8] = tested on: barnyardgrass (Echinochloa crus-galli); experiment: Test A pre-/postemergence: barnyardgrass; conditions: for pest or weed control at 125 g/ha / pest or weed control at 500 g/ha: Echinochloa crus-galli, 240 h
How it was run: as §4

[9] = tested on: foxtail, giant (giant foxtail, Setaria faberii); experiment: Test C pre-/postemergence: foxtail, giant
From the text: as §1, §2, §3

[10] = tested on: winter wheat (Triticum aestivum); experiment: Test C pre-/postemergence: winter wheat
From the text: as §1, §2, §3

[11] = tested on: blackgrass (Alopecurus myosuroides); experiment: Test C pre-/postemergence: blackgrass
From the text: as §1, §2, §3

[12] = Preemergence, 31 g ai/ha, scale 0 (no effect) to 100 (complete control)
[13] = Preemergence, 62 g ai/ha, scale of 0 to 100, 0 is no effect, 100 is complete control
[14] = Preemergence, 125 g ai/ha, scale 0 to 100, 0 no effect, 100 complete control
[15] = Postemergence, 125 g ai/ha, 0 to 100 scale, 0 is no effect, 100 is complete control
[16] = Postemergence, 500 g ai/ha, 0 to 100 scale, 0 is no effect, 100 is complete control
[17] = Preemergence, 125 g ai/ha, 0 to 100 scale where 0 is no effect and 100 is complete control
[18] = Preemergence, 500 g ai/ha, 0 to 100 scale (0 no effect, 100 complete control)
[19] = Preemergence, 16 g ai/ha, scale 0 (no effect) to 100 (complete control)
[20] = Postemergence, 31 g ai/ha, scale 0 to 100 (0 no effect, 100 complete control)
[21] = Postemergence, 62 g ai/ha, scale 0 to 100 (0 no effect, 100 complete control)
[22] = Postemergence, 125 g ai/ha, scale 0 to 100, 0 no effect, 100 complete control
[23] = Postemergence, 250 g ai/ha, scale 0 to 100
[24] = Preemergence, 31 g ai/ha, scale of 0 to 100, 0 is no effect, 100 is complete control
[25] = Preemergence, 250 g ai/ha, scale 0 to 100, 0 no effect, 100 complete control

CCOc1nn(-c2ccc(Br)cc2)nc1Cc1ccnc(C(F)(F)F)c1 [Compound 189]
Plant response rating, Morningglory [1, 12]: 10 | Plant response rating, Morningglory [1, 13]: 40 | Plant response rating, Morningglory [1, 14]: 60 | Plant response rating, Corn [2, 15]: 20 | Corn plant response rating [2, 16]: 40 | Plant response rating, Corn [2, 17]: 10 | Plant response rating, Corn [2, 18]: 10 | Plant response rating, Wheat [3, 15]: 50 | Wheat plant response rating [3, 16]: 60 | Plant response rating, Wheat [3, 17]: 20 | Plant response rating, Wheat [3, 18]: 50 | Plant response rating, Ryegrass, Italian [4, 19]: 50 | Plant response rating, Ryegrass, Italian [4, 12]: 60 | Plant response rating, Ryegrass, Italian [4, 13]: 85 | Plant response rating, Ryegrass, Italian [4, 14]: 100 | Plant response rating, Morningglory [5, 15]: 60 | Morningglory plant response rating [5, 16]: 80 | Plant response rating, Morningglory [5, 17]: 20 | Plant response rating, Morningglory [5, 18]: 30 | Plant response rating, Pigweed [6, 15]: 100 | Pigweed plant response rating [6, 16]: 100 | Plant response rating, Pigweed [6, 17]: 100 | Plant response rating, Pigweed [6, 18]: 100 | Plant response rating, Nutsedge, Yellow [7, 19]: 0 | Plant response rating, Nutsedge, Yellow [7, 12]: 0 | Plant response rating, Nutsedge, Yellow [7, 13]: 0 | Plant response rating, Nutsedge, Yellow [7, 14]: 0 | Plant response rating, Barnyardgrass [8, 15]: 60 | Barnyardgrass plant response rating [8, 16]: 80 | Plant response rating, Barnyardgrass [8, 17]: 80 | Plant response rating, Barnyardgrass [8, 18]: 90 | Plant response rating, Foxtail, Giant [9, 19]: 100 | Plant response rating, Foxtail, Giant [9, 12]: 100 | Plant response rating, Foxtail, Giant [9, 13]: 100 | Plant response rating, Foxtail, Giant [9, 14]: 100 | Plant response rating, Wheat [10, 19]: 0 | Plant response rating, Wheat [10, 12]: 5 | Plant response rating, Wheat [10, 13]: 15 | Plant response rating, Wheat [10, 14]: 30 | Plant response rating, Blackgrass [11, 19]: 75 | Plant response rating, Blackgrass [11, 12]: 90 | Plant response rating, Blackgrass [11, 13]: 100 | Plant response rating, Blackgrass [11, 14]: 100

Cc1nn(-c2ccc(F)cc2)nc1Cc1ccnc(C(F)(F)F)c1 [Compound 16, 4-[[2-(4-fluorophenyl)-5-methyl-2H-1,2,3-triazol-4-yl]methyl]-2-(trifluoromethyl)pyridine]
Plant response rating, Morningglory [1, 20]: 50 | Plant response rating, Morningglory [1, 21]: 75 | Plant response rating, Morningglory [1, 22]: 75 | Plant response rating, Morningglory [1, 23]: 80 | plant injury at 125 g/ha ([2]; Zea mays, post-emergence, 240 h, Postemergence, 125 g ai/ha, 0 to 100 scale, 0 is no effect, 100 is complete control, read-out: Corn plant response rating): 30% | plant injury at 500 g/ha ([2]; Zea mays, post-emergence, 240 h, Postemergence, 500 g ai/ha, visual rating on 0 to 100 scale (0 no effect, 100 complete control), approximately ten days, read-out: Corn plant response rating): 50% | Corn plant response rating (crop injury, 0 = no effect, 100 = complete kill) at 125 g/ha ([2]; Zea mays, pre-emergence, 240 h, Preemergence, 125 g ai/ha, 0 to 100 scale (0 no effect, 100 complete control)): 10% | Corn plant response rating (crop injury, 0 = no effect, 100 = complete kill) at 500 g/ha ([2]; Zea mays, pre-emergence, 240 h, Preemergence, 500 g ai/ha, 0 to 100 scale, 0 is no effect, 100 is complete control): 20% | plant injury at 125 g/ha ([3]; post-emergence, Postemergence, 125 g ai/ha, 0 to 100 scale, 0 is no effect, 100 is complete control, read-out: Wheat plant response rating): 20% | plant injury at 500 g/ha ([3]; post-emergence, Postemergence, 500 g ai/ha, visual rating on 0 to 100 scale (0 no effect, 100 complete control), approximately ten days, read-out: Wheat plant response rating): 30% | plant injury at 125 g/ha ([3]; pre-emergence, Preemergence, 125 g ai/ha, 0 to 100 scale (0 no effect, 100 complete control), read-out: Plant response rating, Wheat): 10% | plant injury at 500 g/ha ([3]; pre-emergence, Preemergence, 500 g ai/ha, 0 to 100 scale, 0 is no effect, 100 is complete control, read-out: Plant response rating, Wheat): 20% | Plant response rating, Ryegrass, Italian [4, 20]: 10 | Plant response rating, Ryegrass, Italian [4, 21]: 10 | Plant response rating, Ryegrass, Italian [4, 22]: 20 | Plant response rating, Ryegrass, Italian [4, 23]: 20 | Plant response rating, Ryegrass, Italian [4, 24]: 5 | Plant response rating, Ryegrass, Italian [4, 13]: 95 | Plant response rating, Ryegrass, Italian [4, 14]: 100 | Plant response rating, Ryegrass, Italian [4, 25]: 100 | pest or weed control at 125 g/ha ([5]; Ipomoea, post-emergence, 240 h, Postemergence, 125 g ai/ha, 0 to 100 scale, 0 is no effect, 100 is complete control, read-out: Morningglory plant response rating): 80% | pest or weed control at 500 g/ha ([5]; Ipomoea, post-emergence, 240 h, Postemergence, 500 g ai/ha, visual rating on 0 to 100 scale (0 no effect, 100 complete control), approximately ten days, read-out: Morningglory plant response rating): 100% | pest or weed control at 500 g/ha ([5]; Ipomoea, pre-emergence, 240 h, Preemergence, 500 g ai/ha, 0 to 100 scale, 0 is no effect, 100 is complete control, read-out: Plant response rating, Morningglory): 80% | pest or weed control at 125 g/ha ([6]; post-emergence, Postemergence, 125 g ai/ha, 0 to 100 scale, 0 is no effect, 100 is complete control, read-out: Pigweed plant response rating): 100% | pest or weed control at 500 g/ha ([6]; post-emergence, Postemergence, 500 g ai/ha, visual rating on 0 to 100 scale (0 no effect, 100 complete control), approximately ten days, read-out: Pigweed plant response rating): 100% | pest or weed control at 125 g/ha ([6]; pre-emergence, Preemergence, 125 g ai/ha, 0 to 100 scale (0 no effect, 100 complete control), read-out: Plant response rating, Pigweed): 90% | pest or weed control at 500 g/ha ([6]; pre-emergence, Preemergence, 500 g ai/ha, 0 to 100 scale, 0 is no effect, 100 is complete control, read-out: Plant response rating, Pigweed): 100% | Plant response rating, Nutsedge, Yellow [7, 20]: 0 | Plant response rating, Nutsedge, Yellow [7, 21]: 0 | Plant response rating, Nutsedge, Yellow [7, 22]: 0 | Plant response rating, Nutsedge, Yellow [7, 23]: 0 | pest or weed control at 125 g/ha ([8]; post-emergence, Postemergence, 125 g ai/ha, 0 to 100 scale, 0 is no effect, 100 is complete control, read-out: Barnyardgrass plant response rating): 90% | pest or weed control at 500 g/ha ([8]; post-emergence, Postemergence, 500 g ai/ha, visual rating on 0 to 100 scale (0 no effect, 100 complete control), approximately ten days, read-out: Barnyardgrass plant response rating): 100% | pest or weed control at 125 g/ha ([8]; pre-emergence, Preemergence, 125 g ai/ha, 0 to 100 scale (0 no effect, 100 complete control), read-out: Plant response rating, Barnyardgrass): 90% | pest or weed control at 500 g/ha ([8]; pre-emergence, Preemergence, 500 g ai/ha, 0 to 100 scale, 0 is no effect, 100 is complete control, read-out: Plant response rating, Barnyardgrass): 100% | Plant response rating, Foxtail, Giant [9, 20]: 40 | Plant response rating, Foxtail, Giant [9, 21]: 40 | Plant response rating, Foxtail, Giant [9, 22]: 50 | Plant response rating, Foxtail, Giant [9, 23]: 50 | Plant response rating, Wheat [10, 20]: 5 | Plant response rating, Wheat [10, 21]: 20 | Plant response rating, Wheat [10, 22]: 25 | Plant response rating, Wheat [10, 23]: 30 | Plant response rating, Wheat [10, 24]: 0 | Plant response rating, Wheat [10, 13]: 5 | Plant response rating, Wheat [10, 14]: 15 | Plant response rating, Wheat [10, 25]: 45 | Plant response rating, Blackgrass [11, 20]: 10 | Plant response rating, Blackgrass [11, 21]: 25 | Plant response rating, Blackgrass [11, 22]: 40 | Plant response rating, Blackgrass [11, 23]: 80 | Plant response rating, Blackgrass [11, 24]: 90 | Plant response rating, Blackgrass ([11]; Preemergence, 62 g ai/ha, scale 0 to 100, 0 no effect, 100 complete control): 100 | Plant response rating, Blackgrass [11, 14]: 100 | Plant response rating, Blackgrass [11, 25]: 100
